Results taken from ChEMBL document CHEMBL4359853, “Antiproliferative activity of (R)-4'-methylklavuzon on hepatocellular carcinoma cells and EpCAM+/CD133+ cancer stem cells via SIRT1 and Exportin-1 (CRM1) inhibition” (Eur J Med Chem, 2019).
The source made the active and inactive calls. No cut-off for these calls is given here.

Tests used:
[1] = test system: Huh-7; test: Cytotoxicity against human HuH7 cells assessed as reduction in cell viability measured after 48 to 72 hrs by MTT assay; assay type: functional, cell-based
[2] = test system: Huh-7; test: Cytotoxicity against human HuH7 cells expressing positive EpCAM/CD133 assessed as reduction in cell viability measured after 48 hrs by MTT assay; assay type: functional, cell-based; conditions: Huh-7, 48 h
[3] = biological target: Histone deacetylase 1 (Homo sapiens) (UniProt Q13547); test: Inhibition of human recombinant HDAC1 using FLUOR DE LYS SIRT1, deacetylase as substrate preincubated for 2 mins followed by substrate addition measured after 1 hr by fluorescence assay
Sequence of Histone deacetylase 1 (Homo sapiens) (Q13547 whole entry): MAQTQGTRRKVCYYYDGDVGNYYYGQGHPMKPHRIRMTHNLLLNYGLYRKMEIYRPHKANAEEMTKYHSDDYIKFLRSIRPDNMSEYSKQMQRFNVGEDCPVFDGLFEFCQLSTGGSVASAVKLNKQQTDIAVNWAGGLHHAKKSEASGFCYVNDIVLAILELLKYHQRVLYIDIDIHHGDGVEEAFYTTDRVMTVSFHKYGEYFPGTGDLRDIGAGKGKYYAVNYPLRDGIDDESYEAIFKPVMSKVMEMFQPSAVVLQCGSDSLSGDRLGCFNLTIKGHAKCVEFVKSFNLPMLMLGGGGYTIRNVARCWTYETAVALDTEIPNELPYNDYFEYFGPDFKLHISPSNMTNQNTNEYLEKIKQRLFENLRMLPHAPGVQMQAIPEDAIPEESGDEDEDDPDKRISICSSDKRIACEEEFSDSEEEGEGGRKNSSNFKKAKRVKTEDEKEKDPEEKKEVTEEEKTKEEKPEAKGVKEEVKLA

[4] = test system: Huh-7; test: Cell cycle arrest in human HuH7 positive EpCAM/CD133 cells assessed as increase in accumulation at G1 phase at 1 to 1.25 uM measured after 48 hrs by propidium iodide staining based flow cytometry analysis; assay type: functional
[5] = test system: Huh-7; test: Cell cycle arrest in human HuH7 cells assessed as increase in cell accumulation at G2 phase at 10 uM measured after 48 hrs by propidium iodide staining based flow cytometry analysis; assay type: functional
[6] = test system: Huh-7; test: Induction of apoptosis in human HuH7 positive EpCAM/CD133 cells measured after 48 hrs by Annexin V-FITC/propidium iodide staining based flow cytometry analysis; assay type: functional, cell-based
[7] = test system: Huh-7; test: Induction of apoptosis in human HuH7 negative EpCAM/CD133 cells assessed as increase in early apoptotic cells measured after 48 hrs by Annexin V-FITC/propidium iodide staining based flow cytometry analysis; assay type: functional, cell-based
[8] = test system: Huh-7; test: Upregulation of p21 expression in human HuH7 cells expressing positive EpCAM/CD133 at 1 to 3 uM measured after 72 hrs by SYBR-green based qPCR analysis; assay type: functional, cell-based
[9] = test system: Huh-7; test: Upregulation of p21 expression in human HuH7 cells expressing negative EpCAM/CD133 at 1 to 3 uM measured after 72 hrs by SYBR-green based qPCR analysis; assay type: functional, cell-based
[10] = test system: Huh-7; test: Induction of apoptosis in human HuH7 cells assessed as change in cell numbers at 0.1 to 10 uM measured after 48 hrs by 2D microscopic analysis; assay type: functional, cell-based
[11] = test system: Huh-7; test: Induction of apoptosis in human HuH7 cells expressing positive EpCAM/CD133 assessed as change in cell morphology at 0.1 to 10 uM measured after 48 hrs by 2D microscopic analysis; assay type: functional, cell-based
[12] = test system: Huh-7; test: Induction of apoptosis in human HuH7 cells expressing negative EpCAM/CD133 assessed as change in cell number at 0.1 to 10 uM measured after 48 hrs by 2D microscopic analysis; assay type: functional, cell-based
[13] = test system: Huh-7; test: Induction of apoptosis in human HuH7 cells assessed as loss of spheroid morphology at 62.5 uM measured after 48 hrs by inverted light microscopy based matrigel assay; assay type: functional, cell-based
[14] = test system: Huh-7; test: Induction of apoptosis in human HuH7 cells expressing positive EpCAM/CD133 assessed as loss of spheroid morphology at 62.5 uM measured after 48 hrs by inverted light microscopy based matrigel assay; assay type: functional, cell-based
[15] = species: Homo sapiens; test: Inhibition of class 1/2 HDAC in human HuH7 nuclear extract at 0.1 to 81 uM after 24 hrs by fluorescence based assay
[16] = species: Homo sapiens; test: Inhibition of Sirtuin/HDAC in human HuH7 cells expressing positive EpCAM/CD133 assessed as decrease in enzymatic activity at 0.10 to 5 uM measured after 24 hrs relative to control; assay type: cell-based
[17] = test system: Huh-7; test: Upregulation of SIRT1 in human HuH7 cells measured after 24 hrs by ELISA; assay type: functional, cell-based
[18] = test system: Huh-7; test: Upregulation of SIRT1 in human HuH7 cells assessed as fold change at 3 uM measured after 24 hrs by ELISA relative to control; assay type: functional
[19] = biological target: Exportin-1 (Homo sapiens) (UniProt O14980); test: Inhibition of CRM1 in human HepG2 cells assessed as accumulation of RIOK2 in nucleus at 1 and 10 uM measured after 24 hrs by DAPI staining based confocal microscopy analysis; assay type: cell-based
Sequence of Exportin-1 (Homo sapiens) (O14980 whole entry): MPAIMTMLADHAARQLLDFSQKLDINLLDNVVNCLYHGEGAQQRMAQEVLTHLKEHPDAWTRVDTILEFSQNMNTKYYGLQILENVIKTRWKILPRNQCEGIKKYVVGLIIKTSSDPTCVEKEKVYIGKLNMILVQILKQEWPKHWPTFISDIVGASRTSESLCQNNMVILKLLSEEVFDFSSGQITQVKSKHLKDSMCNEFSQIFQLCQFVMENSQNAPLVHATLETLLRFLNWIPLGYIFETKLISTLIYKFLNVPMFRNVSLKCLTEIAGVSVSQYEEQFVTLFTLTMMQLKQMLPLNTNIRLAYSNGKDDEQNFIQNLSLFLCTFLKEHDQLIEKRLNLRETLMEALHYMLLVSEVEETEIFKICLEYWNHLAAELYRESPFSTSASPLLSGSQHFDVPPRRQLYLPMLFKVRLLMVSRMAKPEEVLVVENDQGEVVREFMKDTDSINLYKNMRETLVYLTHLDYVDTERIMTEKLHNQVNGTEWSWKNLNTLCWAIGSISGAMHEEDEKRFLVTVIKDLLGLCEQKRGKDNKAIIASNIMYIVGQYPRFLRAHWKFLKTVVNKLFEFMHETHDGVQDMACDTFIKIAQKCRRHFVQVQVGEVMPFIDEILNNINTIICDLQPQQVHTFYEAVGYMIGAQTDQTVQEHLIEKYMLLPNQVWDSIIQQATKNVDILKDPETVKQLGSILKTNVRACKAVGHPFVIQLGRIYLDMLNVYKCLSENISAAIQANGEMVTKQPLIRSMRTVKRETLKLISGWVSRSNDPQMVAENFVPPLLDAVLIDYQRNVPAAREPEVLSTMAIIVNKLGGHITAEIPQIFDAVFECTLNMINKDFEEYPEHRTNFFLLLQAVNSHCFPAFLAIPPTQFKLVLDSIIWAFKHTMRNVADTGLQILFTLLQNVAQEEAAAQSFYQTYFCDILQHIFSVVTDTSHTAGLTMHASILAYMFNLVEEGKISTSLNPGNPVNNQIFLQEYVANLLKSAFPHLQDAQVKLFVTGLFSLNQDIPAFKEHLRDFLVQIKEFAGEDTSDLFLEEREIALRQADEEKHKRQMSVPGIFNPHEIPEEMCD

[20] = biological target: Exportin-1 (Homo sapiens) (UniProt O14980); test: Inhibition of CRM1 in human HepG2 cells assessed as accumulation of RIOK2 in nucleus at 0.1 to 10 uM measured after 6 hrs by DAPI staining based confocal microscopy analysis; assay type: cell-based
[21] = biological target: Exportin-1 (Homo sapiens) (UniProt O14980); test: Inhibition of CRM1 in human HuH7 cells assessed as accumulation of RIOK2 in nucleus at 0.1 to 10 uM measured after 6 hrs by DAPI staining based confocal microscopy analysis; assay type: cell-based
[22] = biological target: Exportin-1 (Homo sapiens) (UniProt O14980); test: Inhibition of CRM1 in human HuH7 cells assessed as upregulation of p53 by measuring accumulation in nucleus at 0.1 to 10 uM measured after 24 to 48 hrs by DAPI staining based immunofluorescence microscopy analysis; assay type: cell-based
[23] = biological target: Histone-lysine N-methyltransferase EZH2 (Homo sapiens) (UniProt Q15910); test: Activation of EZH2 in human HuH7 cells assessed as upregulation of H3K27me3 expression measured after 4 hrs by Western blot analysis; assay type: cell-based
Sequence of Histone-lysine N-methyltransferase EZH2 (Homo sapiens) (Q15910 whole entry, looked up): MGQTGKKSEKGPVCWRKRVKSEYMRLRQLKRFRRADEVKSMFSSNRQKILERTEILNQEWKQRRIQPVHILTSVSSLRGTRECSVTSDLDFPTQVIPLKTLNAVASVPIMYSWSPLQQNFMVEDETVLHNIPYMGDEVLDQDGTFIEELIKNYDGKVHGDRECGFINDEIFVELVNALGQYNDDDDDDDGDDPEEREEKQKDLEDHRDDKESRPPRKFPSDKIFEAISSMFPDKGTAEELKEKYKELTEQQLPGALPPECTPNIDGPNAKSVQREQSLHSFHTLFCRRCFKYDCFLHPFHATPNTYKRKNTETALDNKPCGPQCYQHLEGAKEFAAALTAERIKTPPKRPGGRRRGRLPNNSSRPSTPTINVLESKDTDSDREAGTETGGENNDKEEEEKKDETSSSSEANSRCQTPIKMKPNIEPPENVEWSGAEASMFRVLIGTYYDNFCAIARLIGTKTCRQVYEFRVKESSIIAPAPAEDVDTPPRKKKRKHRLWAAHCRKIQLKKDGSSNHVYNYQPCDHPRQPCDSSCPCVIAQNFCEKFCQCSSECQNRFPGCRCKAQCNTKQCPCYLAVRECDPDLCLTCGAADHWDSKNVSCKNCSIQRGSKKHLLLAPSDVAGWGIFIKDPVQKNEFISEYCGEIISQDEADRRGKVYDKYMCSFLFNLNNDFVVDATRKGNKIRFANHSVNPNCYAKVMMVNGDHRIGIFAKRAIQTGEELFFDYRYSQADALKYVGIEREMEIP

[24] = test system: Huh-7; test: Cytotoxicity against human HuH7 cells negative EpCAM/CD133 assessed as reduction in cell viability measured after 48 to 72 hrs by MTT assay; assay type: functional, cell-based
[25] = test system: Huh-7; test: Cell cycle arrest in human HuH7 negative EpCAM/CD133 cells assessed as increase in accumulation at G1 phase at 10 uM measured after 48 hrs by propidium iodide staining based flow cytometry analysis; assay type: functional
[26] = test system: Huh-7; test: Induction of apoptosis in human HuH7 negative EpCAM/CD133 cells assessed as change in cell morphology at 0.1 to 10 uM measured after 48 hrs by 2D microscopic analysis; assay type: functional, cell-based
[27] = test system: Huh-7; test: Induction of apoptosis in human HuH7 negative EpCAM/CD133 cells assessed as change in cell number at 0.1 to 10 uM measured after 48 hrs by 2D microscopic analysis; assay type: functional, cell-based
[28] = species: Homo sapiens; test: Inhibition of Sirtuin/HDAC in human HUH7 negative EpCAM/CD133 cells assessed as decrease in enzymatic activity at 0.10 to 5 uM measured after 24 hrs relative to control
[29] = species: Homo sapiens; test: Inhibition of class 1/2 HDAC in human HuH7 negative EpCAM/CD133 cells nuclear extract at 0.1 to 81 uM after 24 hrs by fluorescence based assay

inhibition [3]: inactive | inhibition [15]: inactive | inhibition [19]: Active | inhibition [20]: Active | inhibition [21]: Active | inhibition [22]: Active | Activity [23]: Active | Activity [28]: Active | Activity [29]: inactive
SMILES: Cc1ccc([C@H]2CC=CC(=O)O2)c2ccccc12
IC50 [1]: 1.25 µM | IC50 [2]: 2.5 µM | Activity [4]: Active | Activity [5]: Active | Activity [6]: Dose-dependent effect | Activity [7]: Dose-dependent effect | Activity [8]: Active | Activity [9]: Active | Activity [10]: Active | Activity [11]: Active | Activity [12]: Active | Activity [13]: Active | Activity [14]: Active | inhibition [16]: 32 to 39% | Activity [17]: Dose-dependent effect | fold change (FC) [18]: 3.9 | IC50 [24]: 1.25 µM | Activity [25]: Active | Activity [26]: Active | Activity [27]: Active
